Reference: patent US9481670B2, “Triazine compounds” (Sphaera Pharma PTE. Ltd., priority 2011, dated 2016)

biological target: T1, PI3K alpha (Homo sapiens, UniProt P42336); assay: P110 Alpha TR-FRET Assay (PI3K alpha kinase assay, HTRF Transcreener ADP Assay); format: biochemical; details: PI3K (WT)
T1 construct: purchased Millipore Upstate
Summary of the method: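 Enzyme (50 ng) and compound were preincubated 20 min in HEPES pH 7.5 buffer containing MgCl2, DTT and vanadate before 10 μM ATP plus 5 μM PIP2 substrate was added for 20 min. ADP produced was quantified by TR-FRET (ADP-d2, anti-ADP cryptate, 1 h).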

T1 sequence (P42336 whole entry): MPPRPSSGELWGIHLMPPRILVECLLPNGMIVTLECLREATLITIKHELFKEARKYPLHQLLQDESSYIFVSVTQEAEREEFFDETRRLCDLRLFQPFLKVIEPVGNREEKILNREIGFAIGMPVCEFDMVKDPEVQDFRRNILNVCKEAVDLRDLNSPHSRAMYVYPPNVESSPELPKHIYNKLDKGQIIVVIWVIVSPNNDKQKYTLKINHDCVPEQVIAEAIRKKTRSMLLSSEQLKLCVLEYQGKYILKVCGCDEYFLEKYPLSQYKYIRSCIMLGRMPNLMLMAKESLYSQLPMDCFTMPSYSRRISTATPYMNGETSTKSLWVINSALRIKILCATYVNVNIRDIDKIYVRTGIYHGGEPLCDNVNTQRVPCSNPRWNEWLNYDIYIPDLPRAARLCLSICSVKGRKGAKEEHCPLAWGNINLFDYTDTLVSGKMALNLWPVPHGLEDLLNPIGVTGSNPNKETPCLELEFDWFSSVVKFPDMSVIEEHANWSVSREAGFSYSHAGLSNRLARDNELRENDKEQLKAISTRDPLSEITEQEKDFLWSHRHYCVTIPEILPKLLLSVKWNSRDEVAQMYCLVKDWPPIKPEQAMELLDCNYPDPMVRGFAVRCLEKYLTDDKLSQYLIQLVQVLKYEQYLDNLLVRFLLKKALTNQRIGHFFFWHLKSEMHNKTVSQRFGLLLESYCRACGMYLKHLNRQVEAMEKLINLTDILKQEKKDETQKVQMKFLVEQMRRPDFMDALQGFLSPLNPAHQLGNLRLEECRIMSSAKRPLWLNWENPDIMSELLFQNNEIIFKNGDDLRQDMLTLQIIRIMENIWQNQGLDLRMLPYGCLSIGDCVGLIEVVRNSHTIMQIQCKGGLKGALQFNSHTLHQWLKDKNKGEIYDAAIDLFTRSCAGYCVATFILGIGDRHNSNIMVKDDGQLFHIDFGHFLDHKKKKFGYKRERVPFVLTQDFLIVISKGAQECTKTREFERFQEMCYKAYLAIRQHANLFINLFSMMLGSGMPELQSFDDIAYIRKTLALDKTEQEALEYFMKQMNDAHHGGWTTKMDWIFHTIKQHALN
T1 sequence (P27986 whole entry partner): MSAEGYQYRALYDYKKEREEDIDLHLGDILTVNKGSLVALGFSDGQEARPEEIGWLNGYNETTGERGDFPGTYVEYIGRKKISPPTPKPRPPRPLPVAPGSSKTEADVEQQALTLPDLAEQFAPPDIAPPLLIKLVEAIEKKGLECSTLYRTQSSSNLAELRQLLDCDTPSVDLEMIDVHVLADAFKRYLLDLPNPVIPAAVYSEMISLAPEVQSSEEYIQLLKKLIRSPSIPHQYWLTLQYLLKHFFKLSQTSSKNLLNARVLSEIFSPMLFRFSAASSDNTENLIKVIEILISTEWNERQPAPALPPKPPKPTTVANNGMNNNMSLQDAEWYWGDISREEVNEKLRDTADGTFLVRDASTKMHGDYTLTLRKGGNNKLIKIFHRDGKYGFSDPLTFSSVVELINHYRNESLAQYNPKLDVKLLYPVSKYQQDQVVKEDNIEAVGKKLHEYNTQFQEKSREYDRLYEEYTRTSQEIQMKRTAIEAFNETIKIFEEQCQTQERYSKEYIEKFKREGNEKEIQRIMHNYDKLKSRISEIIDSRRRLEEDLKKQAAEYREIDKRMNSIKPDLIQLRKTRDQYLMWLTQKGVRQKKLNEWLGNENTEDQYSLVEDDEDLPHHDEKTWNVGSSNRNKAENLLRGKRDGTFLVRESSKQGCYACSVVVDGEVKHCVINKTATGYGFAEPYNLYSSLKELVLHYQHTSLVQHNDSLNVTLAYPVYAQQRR

IC50 [µM] | SMILES
< 5 | CN(C)C(=O)[C@H]1C[C@H](Oc2nc(-c3cccc4[nH]ncc34)nc(N3CCOCC3)n2)CN1C [Compound 1099, (2R,4S)-4-14-{[4-1-(1H-indazol-4-yl)-6-5-(morpholin-4-yl)-1,3,5-triazin-2-yl]oxy}-N,N,1-trimethylpyrrolidine-2-carboxamide]
< 5 | CNC(=O)C(=O)Nc1ccc(Oc2nc(-c3cccc4[nH]ncc34)nc(N3CCOCC3)n2)cc1 [Compound 1100, N-(4-14-{[4-1-(1H-indazol-4-yl)-6-5-(morpholin-4-yl)-1,3,5-triazin-2-yl]oxy}phenyl)-N′-methylethanediamide]
< 5 | CN(C)C(=O)C(=O)Nc1ccc(Oc2nc(-c3cccc4[nH]ncc34)nc(N3CCOCC3)n2)cc1 [Compound 1101, N-(4-14-{[4-1-(1H-indazol-4-yl)-6-5-(morpholin-4-yl)-1,3,5-triazin-2-yl]oxy}phenyl)-N′,N′-dimethylethanediamide]
< 5 | CS(=O)(=O)N1CCC(Oc2nc(-c3cccc4[nH]ncc34)nc(N3CCOCC3)n2)CC1 [Compound 1102, 4-7-{4-3-[(1-25-methanesulfonylpiperidin-4-yl)oxy]-6-5-(morpholin-4-yl)-1,3,5-triazin-2-yl}-1H-indazole]
< 5 | CN(C)C(=O)[C@H]1C[C@H](Oc2nc(-c3cccc4[nH]ncc34)nc(N3CCOCC3)n2)CN1 [Compound 1103, (2R,4S)-4-14-{[4-1-(1H-indazol-4-yl)-6-5-(morpholin-4-yl)-1,3,5-triazin-2-yl]oxy}-N,N-dimethylpyrrolidine-2-carboxamide]
< 5 | CN(C)C(=O)CCNc1nc(-c2ccc(N)nc2)nc(N2CCOCC2)n1 [Compound 1104, 3-((4-(6-aminopyridin-3-yl)-6-morpholino-1,3,5-triazin-2-yl)amino)-N,N-dimethylpropanamide]
< 5 | Oc1ccc(-c2nc(N3CCNCC3)nc(N3CCOCC3)n2)cn1 [Compound 1105, 5-12-[4-5-(morpholin-4-yl)-6-3-(piperazin-1-yl)-1,3,5-triazin-2-yl]pyridin-2-ol]
< 5 | CN(C)C(=O)Nc1ccc(Oc2nc(-c3cccc4[nH]ncc34)nc(N3CCOCC3)n2)cc1 [Compound 1106, 1-(4-14-{[4-1-(1H-indazol-4-yl)-6-5-(morpholin-4-yl)-1,3,5-triazin-2-yl]oxy}phenyl)-3,3-dimethylurea]
< 5 | CC(C)C(=O)Nc1ccc(Oc2nc(-c3cccc4[nH]ncc34)nc(N3CCOCC3)n2)cc1 [Compound 1107, N-(4-14-{[4-1-(1H-indazol-4-yl)-6-5-(morpholin-4-yl)-1,3,5-triazin-2-yl]oxy}phenyl)-2-30-methylpropanamide]
< 5 | CN(C)C(=O)N1CCC(Oc2nc(-c3cccc4[nH]ncc34)nc(N3CCOCC3)n2)C1 (centres unmarked) [Compound 1108, 3-14-{[4-1-(1H-indazol-4-yl)-6-5-(morpholin-4-yl)-1,3,5-triazin-2-yl]oxy}-N,N-dimethylpyrrolidine-1-carboxamide]
< 5 | CN(C)C(=O)N1CCC(COc2nc(-c3cccc4[nH]ncc34)nc(N3CCOCC3)n2)C1 (centres unmarked) [Compound 1109, 3-22-({[4-1-(1H-indazol-4-yl)-6-5-(morpholin-4-yl)-1,3,5-triazin-2-yl]oxy}methyl)-N,N-dimethylpyrrolidine-1-carboxamide]
< 5 | CN(C)C(=O)c1ccc(COc2nc(-c3cccc4[nH]ncc34)nc(N3CCOCC3)n2)cc1 [Compound 1110, 4-23-({[4-1-(1H-indazol-4-yl)-6-5-(morpholin-4-yl)-1,3,5-triazin-2-yl]oxy}methyl)-N,N-dimethylbenzamide]
> 5 | CN(C)C(=O)c1cccc(Nc2nc(-c3cccc4[nH]ncc34)nc(N3CCNC(=O)C3)n2)c1 [Compound 1111, 3-((4-(1H-indazol-4-yl)-6-(3-oxopiperazin-1-yl)-1,3,5-triazin-2-yl)amino)-N,N-dimethylbenzamide]
< 5 | CN(C)C(=O)c1ccc(Oc2nc(-c3cccc4[nH]ncc34)nc(N3CCOCC3)n2)cc1 [Compound 1114, 4-14-{[4-1-(1H-indazol-4-yl)-6-5-(morpholin-4-yl)-1,3,5-triazin-2-yl]oxy}-N,N-dimethylbenzamide]
< 5 | c1ccc(CN2CCC(Oc3nc(-c4cccc5[nH]ncc45)nc(N4CCOCC4)n3)CC2)cc1 [Compound 1115, 4-(4-((1-benzylpiperidin-4-yl)oxy)-6-(1H-indazol-4-yl)-1,3,5-triazin-2-yl)morpholine]
< 5 | CC(C)(C)OC(=O)N1CCC(NC(=O)c2cccc(Nc3nc(-c4cccc5[nH]ncc45)nc(N4CCOCC4)n3)c2)CC1 [Compound 1116, tert-butyl 4-(3-((4-(1H-indazol-4-yl)-6-morpholino-1,3,5-triazin-2-yl)amino)benzamido)piperidine-1-carboxylate]
< 5 | O=C1CCN(C(=O)c2cccc(Nc3nc(-c4cccc5[nH]ncc45)nc(N4CCOCC4)n3)c2)CCN1 [Compound 1117, 1-(3-((4-(1H-indazol-4-yl)-6-morpholino-1,3,5-triazin-2-yl)amino)benzoyl)-1,4-diazepan-5-one]
< 5 | O=C(O)C(Cc1ccccc1)Nc1nc(-c2cccc(O)c2)nc(N2CCOCC2)n1 (centres unmarked) [Compound 1118, 2-((4-(3-hydroxyphenyl)-6-morpholino-1,3,5-triazin-2-yl)amino)-3-phenylpropanoic acid]

IC50 [µM] | SMILES
< 5 | CN(C)Cc1ccc(Oc2nc(-c3cccc4[nH]ncc34)nc(N3CCOCC3)n2)cc1 [Compound 1119, 1-(4-((4-(1H-indazol-4-yl)-6-morpholino-1,3,5-triazin-2-yl)oxy)phenyl)-N,N-dimethylmethanamine]
> 5 | CS(=O)(=O)N1CCN(C(=O)CNc2nc(-c3ccc(N)cc3)nc(N3CCOCC3)n2)CC1 [Compound 1120, 2-((4-(4-aminophenyl)-6-morpholino-1,3,5-triazin-2-yl)amino)-1-(4-(methylsulfonyl)piperazin-1-yl)ethanone]
> 5 | CC(=O)Nc1cccc(-c2nc(N3CCOCC3)nc(N(CC(=O)O)C(C)=O)n2)c1 [Compound 1121, 2-9-{N-[4-1-(3-14-acetamidophenyl)-6-5-(morpholin-4-yl)-1,3,5-triazin-2-yl]acetamido}acetic acid]
> 5 | CN(C)C(=O)CNc1nc(-c2cccc(C(N)=O)c2)nc(N2CCOCC2)n1 [Compound 1122, 3-12-(4-0-{[(dimethylcarbamoyl)methyl]amino}-6-4-(morpholin-4-yl)-1,3,5-triazin-2-yl)benzamide]
< 5 | CNC(=O)C(=O)N[C@H]1CC[C@H](Oc2nc(-c3cccc4[nH]ncc34)nc(N3CCOCC3)n2)CC1 [Compound 1124, N-methyl-N′-[(1r,4r)-4-9-{[4-1-(1H-indazol-4-yl)-6-5-(morpholin-4-yl)-1,3,5-triazin-2-yl]oxy}cyclohexyl]ethanediamide]
< 5 | CN(C)C(=O)C(=O)N[C@H]1CC[C@H](Oc2nc(-c3cccc4[nH]ncc34)nc(N3CCOCC3)n2)CC1 [Compound 1125, N,N-dimethyl-N′-[(1r,4r)-4-9-{[4-1-(1H-indazol-4-yl)-6-5-(morpholin-4-yl)-1,3,5-triazin-2-yl]oxy}cyclohexyl]ethanediamide]
< 5 | Fc1ccc(-c2nc(N3CCNCC3)nc(N3CCOCC3)n2)cn1 [Compound 1127, 2-1-(6-16-fluoropyridin-3-yl)-4-5-(morpholin-4-yl)-6-3-(piperazin-1-yl)-1,3,5-triazine]
> 5 | COc1cccc(-c2nc(N)nc(N3CCOCC3)n2)c1 [Compound 1128, 4-4-(3-13-methoxyphenyl)-6-0-(morpholin-4-yl)-1,3,5-triazin-2-amine]
< 5 | O=C(Nc1ccccn1)c1cccc(Nc2nc(-c3cccc4[nH]ncc34)nc(N3CCOCC3)n2)c1 [Compound 1129, 3-((4-(1H-indazol-4-yl)-6-morpholino-1,3,5-triazin-2-yl)amino)-N-(pyridin-2-yl)benzamide]
< 5 | CS(=O)(=O)N1CCN(C(=O)c2cccc(Nc3nc(-c4cccc5[nH]ncc45)nc(N4CCOCC4)n3)c2)CC1 [Compound 1130, (3-((4-(1H-indazol-4-yl)-6-morpholino-1,3,5-triazin-2-yl)amino)phenyl)(4-(methylsulfonyl)piperazin-1-yl)methanone]
> 5 | N#Cc1cccc(Oc2nc(-c3cccc4[nH]ncc34)nc(N3CCOCC3)n2)c1 [Compound 1131, 3-22-{[4-1-(1H-indazol-4-yl)-6-5-(morpholin-4-yl)-1,3,5-triazin-2-yl]oxy}benzonitrile]
< 5 | CN(C)C(=O)c1sccc1Nc1nc(-c2cccc3[nH]ncc23)nc(N2CCOCC2)n1 [Compound 1132, 3-((4-(1H-indazol-4-yl)-6-morpholino-1,3,5-triazin-2-yl)amino)-N,N-dimethylthiophene-2-carboxamide]
< 5 | CN(C)C(=O)[C@@H]1CCC[C@@H](Oc2nc(-c3cccc4[nH]ncc34)nc(N3CCOCC3)n2)C1 [Compound 1133, (1R,3R)-3-14-{[4-1-(1H-indazol-4-yl)-6-5-(morpholin-4-yl)-1,3,5-triazin-2-yl]oxy}-N,N-dimethylcyclohexane-1-carboxamide]
< 5 | Nc1ccc(-c2nc(N3CCNCC3)nc(N3CCOCC3)n2)cn1 [Compound 1134, 5-18-[4-5-(morpholin-4-yl)-6-3-(piperazin-1-yl)-1,3,5-triazin-2-yl]pyridin-2-amine]
> 5 | NC(=O)CNc1nc(-c2cccc(C(N)=O)c2)nc(N2CCOCC2)n1 [Compound 1135, 3-6-{4-1-[(carbamoylmethyl)amino]-6-2-(morpholin-4-yl)-1,3,5-triazin-2-yl}benzamide]
< 5 | CSCCC(Nc1nc(-c2cccc(O)c2)nc(N2CCOCC2)n1)C(=O)O (centres unmarked) [Compound 1136, 2-((4-(3-hydroxyphenyl)-6-morpholino-1,3,5-triazin-2-yl)amino)-4-(methylthio)butanoic acid]
> 5 | CN(C)C(=O)CNc1nc(-c2cccc(C(F)F)c2)nc(N2CCOCC2)n1 [Compound 1137, 2-((4-(3-(difluoromethyl)phenyl)-6-morpholino-1,3,5-triazin-2-yl)amino)-N,N-dimethylacetamide]
